The structures appear in SMILES notation. Values after ≈ are worked out from the molar mass of the structure shown.

Drawing on patent US9901649B2, “Block copolymers for therapeutic drug delivery” (INTERNATIONAL BUSINESS MACHINES CORPORATION, priority 2016, dated 2018), this text covers IC50 and body weight loss for one compound.

In one data set the test system is NCCFH-01 cells. Put plainly: In vitro cytotoxicity, MTT assay. Format: cell-based. The following applies: 48 hours, 37° C., pH 7.4, read-out: half maximal inhibitory concentration IC50. As for the experimental part:
BT-474 human breast cancer cell line was purchased from ATCC (Manassas, Va., U.S.A). Hereditary leiomyomastosis and renal cancer cells (NCCFH-01 cell line) was obtained from Dr. Min-Han Tan, Institute of Bioengineering and Nanotechnology, Singapore. Cells were cultured in RPMI-1640 medium containing 25 mM Hepes and L-Glutamine (Lonza, Singapore) supplemented with 10% fetal bovine serum (FBS), 100 U/mL penicillin and 100 μg/mL streptomycin at 37° C. in 5% CO2. 3-[4,5-Dimenthylthiazol-2-yl]-2,5-diphenyl tetrazolium bromide (MTT) was dissolved in phosphate-buffered saline (PBS, pH 7.4) with a concentration of 5 mg/mL, and the solution was filtered with a 0.22 micrometer filter to remove blue formazan crystals prior to usage.
Cytotoxicity of free DOX, DOX-loaded particles, and blank particles was determined through MTT assay. BT-474 cells and NCCFH-01 cells were seeded into 96-well plates at a density of 5×10^3 cells per well and incubated overnight in 100 microliters of RPMI-1640 containing 25 mM Hepes and L-Glutamine, supplemented with 10% FBS and 5% penicillin-streptomycin at 37 C, 5% CO2. […] After gentle agitation for 15 minutes, the absorbance of formazan crystals was taken to be that at 550 nm subtracted by that at 690 nm (TECAN, Switzerland). Cell viability was expressed as a percentage of absorbance of the control cells.
Background: Formazan colour is commonly taken as a measure of viable cells.

The nature of data set [1]: Mouse body weight change during the in vivo treatments. Further details: species or system female BALB/c nude mice. The note with it: nude mice bearing BT-474 xenografts; DOX 5 mg/kg, tail vein injection at day 0, 3, 6 and 10. The procedure: Female BALB/c nude mice were provided by Singapore Biological Research Center (BRC) at 6 weeks of age (20-22 g). All animal studies were adhered to protocols approved by the Singapore BRC's Institutional Animal Care and Use Committee. BT-474 cells (1×10^7) were suspended in 200 microliters of a solution containing Matrigel and PBS (volume ratio: 50/50) and subcutaneously injected into the right flank of female BALB/c nude mice. Estradiol pellet (0.72 mg/pellet, 60 days release) was subcutaneously administered into mice one day before the inoculation. Once the tumor volume reached about 200 mm^3 on the 14th day (recorded as day 0), the mice were randomly divided into 5 groups (7-8 animals per group): group 1 for 0.9% saline as control, group 2 for blank particles, group 3 for free DOX, group 4 for DOX-loaded particles LM-1, and group 5 for DOX-loaded particles LM-2. The dose of DOX in all formulations was 5 mg/kg. The formulations were given to mice via tail vein injection at day 0, 3, 6 and 10. At the predetermined time points, mice were weighed and tumor size was measured with a Vernier caliper. The tumor volume was calculated using the following formula: Tumor volume=length×width^2/2.

Turning to `COc1cccc2c1C(=O)c1c(O)c3c(c(O)c1C2=O)C[C@@](O)(C(=O)CO)C[C@@H]3O[C@H]1C[C@H](N)[C@H](O)[C@H](C)O1` [DOX, Doxorubicin], the IC50 with NCCFH-01 cells was 12.7 µg/mL (≈ 23.4 µM). The body weight loss in data set [1] was found to be 20%.
